For experiment [1], the species on record is Rattus norvegicus. Put plainly: In vitro cardioprotective effect was evaluated by measuring the contractile function LDH at a concentration of 10 uM;not assayed. In kind it is functional. As to conditions: Heart.
For experiment [2], the species on record is Rattus norvegicus. Put plainly: In vitro cardioprotective effect was evaluated by measuring the contractile function EDP at a concentration of 10 uM. The format is functional, Heart.
Experiment [3] deals with Mus musculus. Put plainly: Antitumor efficacy against A549 human non -small cell lung carcinoma was tested in nude mice xenografts at 50 mg/kg on 1st day (i.p.). The following applies: route intraperitoneal. The format is functional. For orientation: In xenograft studies the graft and the host belong to different species.
Experiment [4] concerns Mus musculus. Put plainly: Antitumor efficacy against A549 human non -small cell lung carcinoma was tested in nude mice xenografts at 50 mg/kg on 61th day (i.p.). In kind it is functional. As to conditions: route intraperitoneal.
The species named for experiment [5] is Rattus norvegicus. Put plainly: In vitro cardioprotective effect was evaluated by measuring the contractile function TTC at a concentration of 10 uM. The format is functional, Heart.
The species entered for experiment [6] is Rattus norvegicus. Put plainly: In vitro cardioprotective effect was evaluated by measuring the contractile function (LVDRxHR) at a concentration of 10 uM. The format is functional, Heart.
The subject of experiment [7] is Mus musculus. Put plainly: Antitumor efficacy against A549 human non -small cell lung carcinoma was tested in nude mice xenografts at 50 mg/kg on 35th day (i.p.). The following applies: route intraperitoneal. In kind it is functional.
For experiment [8], the system named is Mus musculus. Put plainly: Antitumor efficacy against A549 human non -small cell lung carcinoma was tested in nude mice xenografts at 50 mg/kg on 45th day (i.p.). The format is functional. As to conditions: route intraperitoneal.
The subject of experiment [9] is Mus musculus. Put plainly: Antitumor efficacy against A549 human non -small cell lung carcinoma was tested in nude mice xenografts at 50 mg/kg on 14th day (i.p.). The format is functional. The following applies: route intraperitoneal.
In experiment [10] the test system is Mus musculus. Put plainly: Antitumor efficacy against A549 human non -small cell lung carcinoma was tested in nude mice xenografts at 50 mg/kg on 25th day (i.p.). The format is functional. The following applies: route intraperitoneal.
The species named for experiment [11] is Rattus norvegicus. Put plainly: Vasorelaxant potency was measured by inhibition of […]-contracted rat aorta. The format is functional.
The subject of experiment [12] is Rattus norvegicus. Put plainly: In vivo anti-infarction effect by measuring the ratio of myocardial infarct zone to area at risk (IZ/AAR) in ischemic myocardium damage rat model at 0.3 mg/Kg;not assayed. The format is functional, organism-based.
The species entered for experiment [13] is Homo sapiens. Put plainly: Inhibitory effect on (HUVEC) human umbilical vein endothelial cell tube formation at a uM; not assayed. The format is functional.
The species entered for experiment [14] is Rattus norvegicus. Put plainly: In vitro cardioprotective effect was evaluated by measuring the contractile function LDH at a concentration of 10 uM. In kind it is functional, Heart.
The species entered for experiment [15] is Homo sapiens. Put plainly: Inhibitory effect on (HUVEC) human umbilical vein endothelial cell tube formation at a uM; ++ significant inhibition. In kind it is functional.
The subject of experiment [16] is Rattus norvegicus. Put plainly: In vivo anti-infarction effect by measuring the ratio of myocardial infarct zone to area at risk (IZ/AAR) in ischemic myocardium damage rat model at 0.3 mg/Kg. The format is functional.

Activity calls are given as the source filed them. No cut-off for these calls is given here. A value given as a limit tells only on which side of the number the result lay.

This is an account of results in ChEMBL document CHEMBL1144961, “Identification of a novel antiangiogenic agent; 4-(N-imidazol-2-ylmethyl)amino benzopyran analogues” (Bioorg Med Chem Lett, 2003).

The inhibition in vivo is the percentage by which the read-out fell short of the control. The term IC50 denotes the point on the concentration scale where inhibition reaches its midpoint. A lower IC50 goes with greater potency.

Take `COC(OC)[C@]1(C)Oc2ccc(N)cc2[C@@H](N(Cc2ncc[nH]2)c2ccc(Cl)cc2)[C@@H]1O`: in the experiment listed under Rattus norvegicus [1], the LDH result is “inactive”. The molecule further had an EDP in the experiment filed under Rattus norvegicus [2] of 62.3 mmHg. Besides, the Body weight in the experiment with Mus musculus [3] is 22.3 g; in the experiment with Mus musculus [7], 27.1 g; in the experiment on Mus musculus [9], 25.42 g; in the experiment with Mus musculus [10], 26.17 g. Also, the inhibition in vivo at 50 mg/kg in the experiment on Mus musculus [4] (A549, ip) is 52.2%; in the experiment with Mus musculus [7] (A549, ip), 39.5%; in the experiment on Mus musculus [8] (A549, ip), 49.5%; in the experiment on Mus musculus [10] (A549, ip), 39.7%. Further, the Tumor volume in the experiment with Mus musculus [4] is reported as 494.8 mm**3; in the experiment on Mus musculus [7] it was 186.8 mm**3; in the experiment with Mus musculus [8], 244.3 mm**3; with Mus musculus [10], 92.2 mm**3. This molecule also showed a TTC in the experiment listed under Rattus norvegicus [5] of 23.5 min. For the same molecule, in the experiment listed under Rattus norvegicus [6], the “LV DRxHR” value is 19.3%. The molecule further displayed an IC50 in the experiment filed under Rattus norvegicus [11] of over 30 µM. For the same molecule, in the experiment on Rattus norvegicus [12], the “IZ/AAR / AAR/LV” value was “inactive”.

For `COC(OC)[C@]1(C)Oc2ccc(N)cc2[C@H](N(Cc2ncc[nH]2)c2ccc(Cl)cc2)[C@H]1O`, the inhibition result in the experiment listed under Homo sapiens [13] is “inactive”.

As to `COC(OC)[C@]1(C)Oc2ccc([N+](=O)[O-])cc2[C@@H](N(Cc2ncc[nH]2)c2ccc(OC(F)(F)F)cc2)[C@@H]1O`, the inhibition entry in the experiment filed under Homo sapiens [13] is “inactive”.

Consider `COC(OC)[C@]1(C)Oc2ccc([N+](=O)[O-])cc2[C@@H](N(Cc2ncc[nH]2)c2ccc(C(F)(F)F)cc2)[C@@H]1O`, for which the inhibition entry in the experiment listed under Homo sapiens [13] was “inactive”.

`COC(OC)[C@@]1(C)Oc2ccc(N)cc2[C@H](N(Cc2ncc[nH]2)c2ccc(OC(F)(F)F)cc2)[C@H]1O`: the inhibition result in the experiment listed under Homo sapiens [13] was “inactive”.

In the experiment filed under Rattus norvegicus [14], `COC(OC)[C@@]1(C)Oc2ccc([N+](=O)[O-])cc2[C@@H](N(Cc2ncc[nH]2)c2ccc(Cl)cc2)[C@@H]1O` came in with an LDH of 10.7 U g-1. In the experiment listed under Rattus norvegicus [2], this molecule yielded an EDP of 14 mmHg. Besides, the TTC in the experiment listed under Rattus norvegicus [5] is recorded as 20.3 min. Also, in the experiment listed under Homo sapiens [15], the inhibition entry was “Significant inhibition”. Also, the “LV DRxHR” value in the experiment filed under Rattus norvegicus [6] amounted to 55.7%. In addition, in the experiment on Rattus norvegicus [16], the IZ/AAR / AAR/LV amounted to 41%. Also, in the experiment filed under Rattus norvegicus [11], the IC50 is over 30 µM.

Turning to `COC(OC)[C@@]1(C)Oc2ccc(N)cc2[C@H](N(Cc2ncc[nH]2)c2ccc(Cl)cc2)[C@H]1O`, the inhibition result in the experiment listed under Homo sapiens [15] is reported as “Significant inhibition”.

In the case of `COC(OC)[C@@]1(C)Oc2ccc(N)cc2[C@@H](N(Cc2ncc[nH]2)c2ccc(Cl)cc2)[C@@H]1O`, the inhibition entry in the experiment filed under Homo sapiens [15] was “Significant inhibition”.

On to `COc1ccc(N(Cc2ncc[nH]2)[C@H]2c3cc(N)ccc3O[C@](C)(C(OC)OC)[C@@H]2O)cc1`, for which the inhibition result in the experiment filed under Homo sapiens [13] is “inactive”.

For the molecule `COC(OC)[C@]1(C)Oc2ccc([N+](=O)[O-])cc2[C@@H](N(Cc2ncc[nH]2)c2ccc(Cl)cc2)[C@@H]1O`, in the experiment filed under Homo sapiens [15], the inhibition entry is “Significant inhibition”.

As to `COC(OC)[C@]1(C)Oc2ccc([N+](=O)[O-])cc2[C@@H](N(Cc2ncc[nH]2)c2ccc(Br)cc2)[C@@H]1O`, the inhibition entry in the experiment listed under Homo sapiens [13] was “inactive”.
